Reference: ChEMBL document CHEMBL6134912, “Novel Piperidine Substituted Pyrazolopyrimidine Derivatives as SGK1 Inhibitors for Treating Cardiovascular Diseases” (ACS Med Chem Lett, 2025)
pIC50: −log10 of the molar value.

The compounds below were run against T1, Serine/threonine-protein kinase Sgk1 (Homo sapiens, UniProt O00141) (assay: Inhibition of GST-tagged human SGK1 using fluorescein labelled ATP-competitive probe by homogeneous time-resolved fluorescence (HTRF) binding assay).
T1 sequence (O00141 whole entry): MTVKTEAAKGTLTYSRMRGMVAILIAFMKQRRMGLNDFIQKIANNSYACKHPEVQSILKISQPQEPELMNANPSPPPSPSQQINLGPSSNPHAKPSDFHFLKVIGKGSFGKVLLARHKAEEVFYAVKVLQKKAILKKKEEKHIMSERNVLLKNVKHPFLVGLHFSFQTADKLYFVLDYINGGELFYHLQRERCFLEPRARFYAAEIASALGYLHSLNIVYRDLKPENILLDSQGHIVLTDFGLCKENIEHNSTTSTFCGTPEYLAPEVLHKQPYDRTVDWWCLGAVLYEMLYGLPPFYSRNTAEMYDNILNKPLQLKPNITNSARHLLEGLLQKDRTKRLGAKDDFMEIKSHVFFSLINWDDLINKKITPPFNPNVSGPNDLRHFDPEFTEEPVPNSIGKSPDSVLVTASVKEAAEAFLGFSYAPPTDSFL

Row | Compound | pIC50
1 | Cc1nc(O[C@H]2CC[C@@H](NC3CCC3)CC2)c(C(=O)N[C@@H]2CCCN(c3nn(-c4ccc(C(N)=O)c(F)c4)c4ncnc(N)c34)C2)s1 | 8.40
2 | CCC(CC)N[C@H]1CC[C@@H](Oc2nc(C)sc2C(=O)N[C@@H]2CCCN(c3nn(-c4ccc(C(N)=O)c(F)c4)c4ncnc(N)c34)C2)CC1 | 8.52
3 | Cc1nc(O[C@H]2CC[C@@H](NC(C)CO)CC2)c(C(=O)N[C@@H]2CCCN(c3nn(-c4ccc(C(N)=O)c(F)c4)c4ncnc(N)c34)C2)s1 (stereo partly specified) | 8.30
4 | Cc1nc(O[C@H]2CC[C@@H](N3CCC3)CC2)c(C(=O)N[C@@H]2CCCN(c3nn(C4=CC(=O)OC4)c4ncnc(N)c34)C2)s1 | 8.30
5 | COc1cc(C(=O)N[C@@H]2CCCN(c3nn(-c4ccc(S(C)(=O)=O)cc4)c4ncnc(N)c34)C2)ccn1 | 8.30
6 | Cc1nc(O[C@H]2CC[C@@H](N(C)C)CC2)c(C(=O)N[C@@H]2CCCN(c3nn(-c4ccc(C(N)=O)c(F)c4)c4ncnc(N)c34)C2)s1 | 8.40
